Reference: paper PMC5770958, “Dual Action of Mexiletine and Its Pyrroline Derivatives as Skeletal Muscle Sodium Channel Blockers and Anti-oxidant Compounds: Toward Novel Therapeutic Potential” (Frontiers in Pharmacology, 2018)
“And” between values parts separate entries of the source, which are not always exact repeats. Identical values can stand only once. “Also recorded” adds a separate entry of the source. Like-named read-outs stand apart in the source and are kept apart here.

Columns and labels:
[1] = system: skeletal-muscle sodium channels (NaV1.4); assay: Steady-state inactivation (h∞) curves of sodium channels; type: cell-based, Rana Esculenta; settings: for Shift in the h∞ curves toward more negative potentials: 10 μM; for Vh1/2: 10 μM drug
Experimental: Steady-state inactivation (h∞) curves were determined by a cyclic protocol of pulse sequences.
(§1) The h∞ curves have been fitted with a single Boltzmann, and the potential at which 50% of the sodium channels were inactivated (Vh1/2) was calculated at the inflection point of the curves. Statistical significance of differences between pairs of mean values has been estimated by unpaired Student's t-test and considered significant for p < 0.05. Two-way ANOVA and Bonferroni post-hoc corrections have been used for multiple comparison of experimental data means. The statistical significance between IC50 values obtained from the fit was evaluated using a number of degrees of freedom equal to the total number of preparations determining each point of the curve minus the number of means determining the curve minus two for the free parameters. The measurements of ionization constants and lipophilicity were performed on a Sirius GLpKa analyzer for pH-metric pKa and LogP (Sirius Analytical Instruments Ltd-Forest Row-UK). Correlation analysis was evaluated by fitting the experimental data point to linear regression analysis. Nonlinear equation fitting and processing for data graphics were done by FigP Software (Biosoft, Cambridge, UK).
Fig. S2: Steady-state inactivation (h∞) curves were determined by a cyclic protocol of pulse […]
duration, and a test pulse to -20 mV for 10ms; after a pause of 3 s, the sequence was repeated 18-20 times with the prepulse potential value increased each time in 5 mV steps. A more quantitative estimate of the absolute affinity constant for the inactivated state (Ki) was obtained from the voltage dependent distribution of the channels in the resting (h) and inactivated state (1-h) obtained from […]

[2] = system: skeletal-muscle sodium channels (NaV1.4); assay: Recovery from inactivation of drug-bound sodium channels; open channel block check; type: cell-based, Rana Esculenta; settings: 3 and 10 μM
[3] = Ionization constants and lipophilicity (Sirius GLpKa analyzer); type: physicochemical; settings: for pKa: amine group of the drugs; for logD: pH 7.4, calculated from LogP and pKa values, read-out: Log D7.4
Experimental: as §1

[4] = system: skeletal-muscle sodium channels (NaV1.4); assay: Voltage-clamp recordings of INa in single muscle fibers: tonic block and use-dependent block; type: cell-based, Rana Esculenta; settings: for IC50: HP -100 mV to -20 mV; for BT/BUD (IC50 TB/IC50 UDB 10-Hz): ratio tonic to 10-Hz use-dependent block
C2C12 cells [5] = assay: Cyto-protective effect against H2O2-induced oxidative stress (CCK-8); type: cell-based, Murine; settings: for Cyto-protective effect: C2C12, 300 μM H2O2, drug 0.1-30 μM, 2 h before H2O2 plus 6 h
Experimental: (§2) Murine C2C12 skeletal muscle cells were cultured in DMEM supplemented with 10% fetal bovine serum, 1% penicillin, 1% streptomycin and 1% glutamine and were maintained at 37°C in 5% CO2/95% air. Cells obtained by sub-confluent cultures (about 70%) were seeded in 96 multiwell plate at a density of approximately 4.5 × 10^3 cells per well. Eighteen hours after seeding, either the cytotoxic effect of H2O2, mexiletine, Me5, their tetramethyl-pyrroline derivatives, and PP2 or the potential protective effect of all above mentioned compounds and N-acetyl cysteine (NAC) against the H2O2-induced oxidative stress has been investigated. […] To evaluate the cyto-protective effect of the drugs, C2C12 cells were incubated with the test compounds 2 h before the application of H2O2 at 300 μM and 1 mM, and then maintained for additional 6h. Two hours before absorbance lecture, 10 μl of Cell Counting Kit-8 pure solution (CCK-8 Alexis Biochemicals) was added into each well. The CCK-8 solution contains the monosodium salt of [2-(2-methoxy-4-nitrophenyl)-3-(4-nitrophenyl)-5-(2,4-disulfophenyl)-2H-tetrazolium (WST-8), which is reduced by cellular dehydrogenases to give a yellow colored product (formazan) absorbing at 450 nm. The quantity of formazan dye is directly proportional to the number of viable cells. Absorbance was measured at 450 nm with a microplate spectrophotometer (Victor V31420-40, PerkinElmer). This assay was successfully used to investigate on the mechanism of ion channel-regulated cell proliferation in cell lines (Tricarico et al., [2013]).
Fresh stock solutions of the test compounds were made daily and diluted in DMEM as required. Only for the tetramethyl-pyrroline derivatives and PP2, stock solutions in DMSO were prepared and then diluted in DMEM. The maximal concentration of DMSO in the diluted solutions was <0.2%. As expected, 0.2% DMSO had no effect on cell survival (data not shown). Accordingly, cell viability in the presence of drugs was expressed as percent change with respect to the cell treated with vehicle alone, after proper subtraction of blank absorbance.

[6] = system: skeletal-muscle sodium channels (NaV1.4); assay: Voltage-dependent block of INa at HP -140 and -70 mV (resting and inactivated state affinity); type: cell-based, Rana Esculenta; settings: for IC50: 0.3-Hz; for Ki: computed from Kr, K-70 and h∞ curve, read-out: Inactivated state block, calculated Ki
Source text: The cut-end fiber was then bathed in an internal solution and mounted across three chamber partitions, which delineated four pools. Three strips of vaseline were applied over the fiber and carefully sealed to the fiber to reduce leakage. […] Four KCl/agar bridges electrodes connected the recording chamber to the voltage-clamp amplifier based on methods described by Hille and Campbell ([1976]). For recording sodium currents (INa), the solution in the pool A was replaced with the external solution and after about 10 min of equilibration the recordings were performed at 10°C. […] Particular care was taken to verify that no change occurred in the membrane area in pool A throughout the experiments. Sodium currents were recorded using an amplifier connected via a A/D and D/A Digidata 1,200 Interface (Axon) to a 486 DX2/66 personal computer and stored on the hard disk. The stimulation protocols and data acquisition were controlled by Clampex software (pClamp6; Axon Instruments, Foster City, CA, USA) (Mele et al., [2014]). The currents flowing in response to depolarizing command voltages were low pass filtered at 10 kHz (Frequency Devices, Haverhill, MA, USA), visualized on an oscilloscope and sampled at 20 kHz. When necessary, leak and capacities currents were subtracted by P/4 method. The acquired traces were analyzed offline using Clampfit software (pClamp6; Axon Instruments). […] The degree of use-dependent block was computed as the value of the steady-state INa, max at this point normalized to the current at the same point in the absence of drug. This parameter reflects the potency of the drug for blocking the channels under conditions of high-frequency stimulation (i.e., as occurs during myotonic action potential firing) (De Luca et al., [2003a],[b]). […] The concentration-dependence of the drug effect was calculated as the half-maximal blocking concentration (IC50) at −140 mV, which allowed calculation of the affinity constant for the resting state (Kr). […] The affinity constant of the drug for the inactivated channel (Ki) was the computed as described below. Steady-state inactivation (h∞) curves were determined by a cyclic protocol of pulse sequences. […] Muraglia et al., [2014]). All data were expressed as mean ± S.E.M. The IC50 values, in the various experimental conditions, were determined by using a non-linear least squares fit of the concentration-response curves to the following logistic equation: […] K is IC50; n is the logistic slope factor, and [drug] is the molar concentration of the compound (Talon et al., [2001]). […] Statistical significance of differences between pairs of mean values has been estimated by unpaired Student's t-test and considered significant for p < 0.05. Two-way ANOVA and Bonferroni post-hoc corrections have been used for multiple comparison of experimental data means. The statistical significance between IC50 values obtained from the fit was evaluated using a number of degrees of freedom equal to the total number of preparations determining each point of the curve minus the number of means determining the curve minus two for the free parameters. The measurements of ionization constants and lipophilicity were performed on a Sirius GLpKa analyzer for pH-metric pKa and LogP (Sirius Analytical Instruments Ltd-Forest Row-UK). Correlation analysis was evaluated by fitting the experimental data point to linear regression analysis. Nonlinear equation fitting and processing for data graphics were done by FigP Software (Biosoft, Cambridge, UK).

C2C12 cells [7] = assay: Cell culture cytotoxicity assay (CCK-8), 8 h incubation; type: cell-based, Murine
Experimental: as §2, with “The CCK-8 solution contains the monosodium salt of [2-(2-methoxy-4-nitrophenyl)-3-(4-nitrophenyl)-5-(2,4-disulfophenyl)-2H-tetrazolium (WST-8), which is reduced by cellular dehydrogenases to give a yellow colored product (formazan) absorbing at 450 nm.” left out, “This assay was successfully used to investigate on the mechanism of ion channel-regulated cell proliferation in cell lines (Tricarico et al., [2013]).” left out
(§3) Fresh stock solutions of the test compounds were made daily and diluted in DMEM as required. […] Accordingly, cell viability in the presence of drugs was expressed as percent change with respect to the cell treated with vehicle alone, after proper subtraction of blank absorbance.
(§4) All data were expressed as mean ± S.E.M. The IC50 values, in the various experimental conditions, were determined by using a non-linear least squares fit of the concentration-response curves to the following logistic equation: Effect = −100/{1+(K/[drug])n}, where Effect is the percentage change of INa; −100 is the maximal percentage block of INa; K is IC50; n is the logistic slope factor, and [drug] is the molar concentration of the compound (Talon et al., [2001]). […] The h∞ curves have been fitted with a single Boltzmann, and the potential at which 50% of the sodium channels were inactivated (Vh1/2) was calculated at the inflection point of the curves. […]

[8] = as above; type: cell-based, Murine; settings: mouse, C2C12 skeletal muscle cells, 8 h of incubation, read-out: Cytotoxic effect IC50
Experimental: as §2, with “The CCK-8 solution contains the monosodium salt of [2-(2-methoxy-4-nitrophenyl)-3-(4-nitrophenyl)-5-(2,4-disulfophenyl)-2H-tetrazolium (WST-8), which is reduced by cellular dehydrogenases to give a yellow colored product (formazan) absorbing at 450 nm.” left out, “This assay was successfully used to investigate on the mechanism of ion channel-regulated cell proliferation in cell lines (Tricarico et al., [2013]).” left out
as §3, §4

[9] = 0.3-Hz, 10°C, read-out: Tonic block IC50
[10] = 10-Hz trains, read-out: Use-dependent block 10-Hz IC50
[11] = HP -70 mV, read-out: Voltage-dependent block HP-70 mV IC50, K-70
[12] = HP -140 mV, resting state, read-out: Voltage-dependent block HP-140 mV IC50, Kr

SMILES | logP [3] | pKa [3] | logD [3] | IC50 [4, 9] | IC50 [4, 10] | Cyto-protective effect (C2C12 cells [5]) | IC50 [6, 11] | IC50 [6, 12] | Ki [6] | also measured
Cc1cccc(C)c1OCC(NC(=O)C1=CC(C)(C)NC1(C)C)C(C)C (stereo not drawn) [CI16, N-{1-[(2,6-dimethylphenoxy)methyl]-2-methylpropyl}-2,2,5,5-tetramethyl-2,5-dihydro-1H-pyrrole-3-carboxamide] | 3.2 ± 0.3 | 8.53 ± 0.01 | 2.1 ± 0.1 | 12.6 ± 0.2 µM | 0.6 ± 0.1 µM | remarkable cyto-protection; also recorded: a decrease in efficacy | 1.8 ± 0.4 µM | 7.7 ± 0.5 µM | 1.8 µM | Shift in the h∞ curves toward more negative potentials [1]: 6.3 ± 1.1 mV; Vh1/2 [1]: -83.7±0.1 mV; Time constants for recovery from inactivation [2]: slowest time constants; Fold more potent than Me5, tonic block ([4]; Me5 ref De Luca et al., 2000): ~2 fold; Fold more potent than Me5, use-dependent block ([4]; Me5 ref De Luca et al., 2000): ~9 fold; BT/BUD (IC50 TB/IC50 UDB 10-Hz) [4]: 21
OO [H2O2] | – | – | – | – | – | – | – | – | – | IC50 (C2C12 cells [7]; 8 h of incubation, read-out: Cytotoxic effect IC50): 292 ± 25 µM
Cc1cccc(C)c1OCC(N)C(C)C (stereo not drawn) [Me5, 1-(2,6-dimethylphenoxy)-3-methyl-2-butanamine] | 2.72 ± 0.02 | 8.97 ± 0.03 | 1.1 ± 0.1 | – | – | moderate, albeit significant, cyto-protective effect | – | – | – | –
Cc1cccc(C)c1OCC(C)N (stereo not drawn) [Mex, 2-(2,6-dimethylphenoxy)-1-amino-propanemethylethylamine, reference compound] | – | – | – | 75.3 ± 8 µM | 23.6 ± 2.8 µM | moderate, albeit significant, cyto-protective effect | 1.9 ± 0.2 µM | 148 ± 20 µM | 2 µM | IC50 at 8 h [8]: 775 ± 88 µM; R (IC50 of Mex / IC50 of compound), tonic block [4]: 1; R (IC50 of Mex / IC50 of compound), use-dependent block 10-Hz [4]: 1
CC(C)(C)n1nc(-c2ccc(Cl)cc2)c2c(N)ncnc21 [PP2] | – | – | – | – | – | – | – | – | – | Cytotoxicity compared with Mex and its analogs (C2C12 cells [7]; 10-100 μM): more cytotoxic than Mex and its analogs
Cc1cccc(C)c1OC[C@@H](C)N [R-Mex, reference compound] | – | – | – | 74 ± 8 µM | 31 ± 8 µM | – | – | – | – | –
Cc1cccc(C)c1OC[C@H](C)N [S-Mex, reference compound] | – | – | – | 127 ± 2.8 µM | 32 ± 7 µM | – | – | – | – | –
Cc1cccc(C)c1OCC(C)NC(=O)C1=CC(C)(C)NC1(C)C (stereo not drawn) [VM11, N-[2-(2,6-dimethylphenoxy)-1-methylethyl]-2,2,5,5-tetramethyl-2,5-dihydro-1H-pyrrole-3-carboxamide] | 2.8 ± 0.1 | 8.5 ± 0.1 | 1.7 ± 0.1 | 23.4 ± 0.9 µM | 2 ± 0.1 µM | remarkable cyto-protection; also recorded: maintained the same cyto-protection observed between 3 and 30 μM | 4.5 ± 0.1 µM | 15.5 ± 0.6 µM | 4.2 µM | Shift in the h∞ curves toward more negative potentials [1]: 3.6 ± 1.1 mV; Vh1/2 [1]: -82±0.3 mV; BT/BUD (IC50 TB/IC50 UDB 10-Hz) [4]: 11.7 and 12; R (IC50 of Mex / IC50 of compound), use-dependent block 10-Hz ([4]; relative potency toward Mex, racemic form): 12; Cell protection (C2C12 cells [5]; C2C12, 300 μM H2O2, drug 100 μM): 43.5 ± 2.03%
